What was measured:
[1] = Particle size of mirdametinib drug substance lots (laser diffraction particle sizing); assay type: physicochemical; conditions: mirdametinib free base drug substance
Source text: As used herein, “D50” or “d50”, also known as the median diameter, corresponds to the value under which 50% of the particles has a lower volume diameter. “D90” or “d90” corresponds to the value under which 90% of the particles has a lower volume diameter. The particle size may be measured using wet standard laser diffraction particle sizing techniques known in the art. One example of an instrument to measure the particle size of the dry powders is the Mastersizer 3000, manufactured by Malvern Panalytical Ltd. (Malvern, UK). As particles are often non-spherical, it is difficult and complex to provide dimensional descriptions of these non-spherical particles. As used herein, “volume diameter” refers to diameter of a sphere with equal volume of the non-spherical particle.
(§1) Mirdametinib free base (Lots #1, 2, and 3) having the properties in the table below were prepared.

[2] = Bulk and tap density, Carr's Index of drug substance lots; assay type: physicochemical; conditions: mirdametinib free base drug substance
Experimental: as §1

SMILES	D10 [1]	D50 [1]	D90 [1]	Bulk density [2]	Carr's Index [2]	Tap density [2]
O=C(NOC[C@H](O)CO)c1ccc(F)c(F)c1Nc1ccc(I)cc1F [Lot 3, N—((R)-2,3-dihydroxypropoxy)-3,4-difluoro-2-(2-fluoro-4-iodo-phenylamino)benzamide]	17.8 μm	46.5 μm	217.1 μm	–	–	–
O=C(NOC[C@H](O)CO)c1ccc(F)c(F)c1Nc1ccc(I)cc1F [Lot 1, N—((R)-2,3-dihydroxypropoxy)-3,4-difluoro-2-(2-fluoro-4-iodo-phenylamino)benzamide]	4.9 μm	20.9 μm	101.5 μm	0.169 g/mL	57.1	0.394 g/mL
O=C(NOC[C@H](O)CO)c1ccc(F)c(F)c1Nc1ccc(I)cc1F [Lot 2, N—((R)-2,3-dihydroxypropoxy)-3,4-difluoro-2-(2-fluoro-4-iodo-phenylamino)benzamide]	7.6 μm	28.4 μm	120.7 μm	0.197 g/mL	54.6	0.434 g/mL
